Where two headings read alike, the source gives them in different places.
Key:
cyclooxgenase-2 (COX-2) = experiment: RNA expression of COX-2 (RT-PCR) in IL-1β stimulated RAC; assay type: cell-based, Rabbit; details: for Effect on COX2 expression (in words): IL-1β stimulated RAC; for COX2 Expression: relative RNA expression (untreated = 1.0), GAPDH reference, 24 h pre-treatment, IL-1β 10 ng/ml 48 h, green tea extract 50 μM, collagen 0.5 mg/ml, chondroitin 200 μg/ml
Description: (§1) An in vitro study was run to evaluate the efficacy of a composition containing chondroitin, hydrolysed collagen and green tea extract on Rabbit Articular Chondrocytes (RAC). RAC were cultured in DMEM supplemented with 10% Fetal Calf Serum, glutamine and 1% penicillin/streptomycin (Gibco, Life Technologies AG, Switzerland) at 37° C. in an incubator with an atmosphere of 5% CO2.
(§2) RAC were plated in 6 well plates (3×10^5 cells/cm2). The medium was replaced with fresh medium containing each compound chondroitin, hydrolysed collagen and green tea extract or a mixture of all three compounds for 24 hours prior to stimulation with IL-1β (10 ng/ml) (Merck Millipore, USA). RAC were then incubated for 48, hours after which RNA expression of cyclooxgenase-2 (COX-2), inducible isoform Nitric oxide Synthase (iNoS) and Matrix Metallopeptidase-13 (MMP13) was measured as markers of arthritis.
(§3) NO and PGE2 production was measured using Cayman Chemicals (Bertin Pharma, France) following the manufacturer's protocol. NO production was estimated spectrophotometrically by measuring the accumulation of nitrites in the culture supernatants by Griess reaction using a standard curve prepared with sodium nitrite. PGE2 was estimated using a highly sensitive and specific Enzyme Immunoassay Kit. RNA extraction was performed by extracting RNA using the NucleoSpin™ RNA II Kit (Macherey-Nagel, Hoerdt, France) as per manufacturer's instructions. RNA was reverse-transcribed with SupersScript III (Life Technologies) and real-time polymerase chain reaction (RT-PCR) was performed with SYBR Select mix (Life Technologies). Primer sequences COX-2, iNoS and MMP13 was used to quantify the relative RNA expression. Primer sequence for GAPDH was used as the reference gene.

[1] = system: inducible isoform Nitric oxide Synthase (iNoS); experiment: RNA expression of iNoS (RT-PCR) in IL-1β stimulated RAC; assay type: cell-based, Rabbit; details: for Effect on iNos expression (in words): IL-1β stimulated RAC; for iNoS Expression: relative RNA expression (untreated = 1.0), GAPDH reference, 24 h pre-treatment, IL-1β 10 ng/ml 48 h, green tea extract 50 μM, collagen 0.5 mg/ml, chondroitin 200 μg/ml
Description: as §1, §2, §3

[2] = system: Matrix Metallopeptidase-13 (MMP13); experiment: RNA expression of MMP13 (RT-PCR) in IL-1β stimulated RAC; assay type: cell-based, Rabbit
Description: as §1, §2
NO and PGE2 production was measured using Cayman Chemicals (Bertin Pharma, France) following the manufacturer's protocol. NO production was estimated spectrophotometrically by measuring the accumulation of nitrites in the culture supernatants by Griess reaction using a standard curve prepared with sodium nitrite. PGE2 was estimated using a highly sensitive and specific Enzyme Immunoassay Kit. […] Primer sequences COX-2, iNoS and MMP13 was used to quantify the relative RNA expression. […]

[3] = system: Rabbit Articular Chondrocytes (RAC); experiment: Cellular viability of RAC (MTS assay and trypan blue exclusion); assay type: cell-based
Description: as §1
Cellular viability was measured using an MTS assay (Cell Titer 96™ MTS, Promega, France) as per manufacturer's instructions. Cells were also counted using a Malassez cell and cellular viability was assessed using trypan blue exclusion dye technique, which colours dead cells in blue.
Rabbit Articular Chondrocytes (RAC) were incubated with the different compounds separately or blended together to evaluate their cytotoxicity.

For Chondroitin, the “Effect on COX2 expression (in words)” value (cyclooxgenase-2 (COX-2)) was “seems to have no effect”, the “COX2 Expression” value (cyclooxgenase-2 (COX-2)) was 10.7 and the “Effect on iNos expression (in words)” value [1] was “seems to have no effect”. The “iNoS Expression” value [1] was 5.3, the “Effect on MMP13 expression (in words)” value [2] was “seems to have no effect” and the “Cellular toxicity (MTS measurements and Trypan blue exclusion)” value ([3]; 24 and 48 hours of incubation, large range of concentration (data not shown)) was “did not reveal any cellular toxicity”.

Collagen was tested, and the “Effect on COX2 expression (in words)” value (cyclooxgenase-2 (COX-2)) was “decreases the expression”, the “COX2 Expression” value (cyclooxgenase-2 (COX-2)) was 7.1 and the “Effect on iNos expression (in words)” value [1] was “decreases the expression”. For the same substance, the “iNoS Expression” value [1] was 3.9, the “Effect on MMP13 expression (in words)” value [2] was “decreases the expression” and the “Cellular toxicity (MTS measurements and Trypan blue exclusion)” value [3] was “did not reveal any cellular toxicity”.
